{
  "source": "patent US20240043410A1",
  "about": "“SULPHAMOYL UREA DERIVATIVES CONTAINING ALKYL-OXACYCLOALKYL MOIETY AND USES THEREOF” (NodThera Limited, priority 2020, published 2024)",
  "key": {"[1]": {"test_system": "IL-1β release upon NLRP3 activation in peripheral blood mononuclear cells (PBMC)", "assay": "PBMC IC50 Determination Assay", "type": "cell-based", "conditions": "Homo sapiens; LPS-primed PBMC stimulated with ATP (5 mM) or nigericin (10 μM); IL-1β by ELISA (Protocol A) or HTRF (Protocol B); salts tested", "experimental": "PBMC IC50 Determination Assay. The compounds of the present disclosure were tested for their inhibitory activity against IL-1β release upon NLRP3 activation in peripheral blood mononuclear cells (PBMC).\nProtocol A. PBMC were isolated from buffy coats by density gradient centrifugation on Histopaque-1077 (Sigma, cat no. 10771). Isolated cells were seeded into the wells of a 96-well plate and incubated for 3 h with lipopolysaccharide (LPS). Following medium exchange, the compounds of the present disclosure were added (a single compound per well) and the cells were incubated for 30 min. Next, the cells were stimulated either with ATP (5 mM) or nigericin (10 μM) for 1 h and the cell culture media from the wells were collected for further analysis. The release of IL1-β into the media was determined by a quantitative detection of IL-1β in the media using an IL-1β enzyme-linked immunosorbent assay (ELISA) Ready-SET-Go!, eBioscience cat. No. 88-7261-88. Briefly, in a first step, high affinity binding plates (Corning, Costar 9018 or NUNC Maxisorp Cat No. 44-2404) were coated overnight at 4° C. with specific capture antibody included in the kit (anti-human IL-1β ref. 14-7018-68). Subsequently, plates were blocked with blocking buffer for 1 h at room temperature (rt) and after washing with a buffer (PBS with 0.05% Tween-20) incubated with protein standard and culture media. After 2 h of incubation at rt, plates were washed and incubated with biotinylated detection antibody included in the kit (anti-human IL-1β Biotin ref. 33-7110-68) for 1 h at rt. Plates were washed and incubated with HRP-streptavidin for 30 min at rt and washed again. The signal was developed after addition of 3,3′,5,5′-tetramethylbenzidine-peroxidase (TMB) until colour appeared and the reaction was stopped by 2 M H2SO4. A microplate spectrophotometer (BioTek) was used to detect signals with 450 nm. The detection range of IL-1β 3 ELISA was 2-150 ng/mL.\nProtocol B. PBMC were isolated from buffy coats by density gradient centrifugation on Histopaque-1077 (Sigma, cat no. 10771). Isolated cells were seeded into the wells (280,000 cells/well) of a 96-well plate and incubated for 3 h with lipopolysaccharide (LPS, 1 μg/mL diluted 1000× from a 1 mg/mL stock solution). The compounds of the present disclosure were added (a single compound per well) and the cells were incubated for 30 min. Next, the cells were stimulated with ATP (5 mM final concentration diluted 20× from a 100 mM stock solution) for 1 h and the cell culture media from the wells were collected for further analysis. The release of IL-1β into the media was determined by quantitative detection of IL-1 in the media using HTRF®, CisBio cat. No. 62HIL1BPEH. Briefly, cell culture supernatant were dispensed directly into the assay plate containing antibodies labelled with the HTRF® donor and acceptor. A microplate spectrophotometer (BMG) was used to detect signals at 655 nm and 620 nm. The detection range of IL-1β HTRF® was […]."}, "PAMPA permeability assay": {"assay": "PAMPA permeability assay", "type": "in vitro ADME", "conditions": "10 μM donor, PBS, 4 hours at room temperature, lecithin/dodecane membrane", "experimental": "PAMPA Studies. The compounds of the present disclosure were tested in a PAMPA permeability assay to assess passive transcellular permeation.\nProtocol. 0.2 mM working solution was prepared by diluting 10 mM stock solution with DMSO. 10 μM donor solution (5% DMSO) was prepared by diluting 20 μL of working solution with 380 μL PBS. 150 μL of 10 μM donor solutions to each well of the donor plate, whose PVDF membrane was precoated with 5 μL of 1% lecithin/dodecane mixture. Duplicates were prepared. 300 μL of PBS was added to each well of the PTFE acceptor plate. The donor plate and acceptor plate were combined and incubated for 4 hours at room temperature with shaking at 300 rpm. Preparation of TO sample: 20 μL donor solution was transferred to new well followed by the addition of 250 μL PBS (DF: 13.5), 130 μL ACN (containing internal standard) as TO sample. Preparation of acceptor sample: The plate was removed from incubator. 270 μL solution was transferred from each acceptor well and mixed with 130 μL ACN (containing internal standard) as acceptor sample. Preparation of donor sample: 20 μL solution was transferred from each donor well and mixed with 250 μL PBS (DF: 13.5), 130 μL ACN (containing internal standard) as donor sample. Acceptor samples and donor samples were all analysed by LC-MS/MS.\nThe measured PAMPA permeability values of compounds of the present disclosure are shown in Table B below (“$$$$” means >10 nm/“$$$” means ≥3 and <10 nm/s; “$$” means ≥1 and <3 nm/s; “$” means <1 nm/s)."}, "[2]": {"assay": "Thermodynamic (equilibrium) solubility assay", "type": "physicochemical", "conditions": "aqueous buffer, thermodynamic from solid; 50 mM pH 7.4 phosphate buffer, 24 hours at room temperature", "experimental": "Thermodynamic Solubility Studies. The compounds of the present disclosure were tested in an equilibrium solubility assay.\nAn appropriate amount of test and control compounds were weighed into lower chambers of Whatman Mini-UniPrep vials. To these were added 50 mM pH 7.4 phosphate buffer (450 μL) to get a super-saturated suspension. The samples were vortexed for at least 2 minutes. The Whatman Mini-UniPrep vials were shaken on a shaker for 24 hours at room temperature at 800 rpm. The vials were centrifuged for 20 minutes (eg. 4000 rpm). Samples were compressed to prepare filtrates for injection into HPLC system and the concentration calculated with a standard curve. […] As shown in the table, compounds of the present disclosure may display improved properties (e.g., over the compounds in the prior art), such as enhanced potency, solubility, membrane permeability and transporter efflux."}, "P-glycoprotein (P-gp)": {"target": "T1, P-glycoprotein (P-gp) (Homo sapiens, UniProt P08183)", "T1 construct": "expressed in transfected cells; host or cells: MDCK-MDR1 cells", "T1 sequence (P08183 whole entry)": "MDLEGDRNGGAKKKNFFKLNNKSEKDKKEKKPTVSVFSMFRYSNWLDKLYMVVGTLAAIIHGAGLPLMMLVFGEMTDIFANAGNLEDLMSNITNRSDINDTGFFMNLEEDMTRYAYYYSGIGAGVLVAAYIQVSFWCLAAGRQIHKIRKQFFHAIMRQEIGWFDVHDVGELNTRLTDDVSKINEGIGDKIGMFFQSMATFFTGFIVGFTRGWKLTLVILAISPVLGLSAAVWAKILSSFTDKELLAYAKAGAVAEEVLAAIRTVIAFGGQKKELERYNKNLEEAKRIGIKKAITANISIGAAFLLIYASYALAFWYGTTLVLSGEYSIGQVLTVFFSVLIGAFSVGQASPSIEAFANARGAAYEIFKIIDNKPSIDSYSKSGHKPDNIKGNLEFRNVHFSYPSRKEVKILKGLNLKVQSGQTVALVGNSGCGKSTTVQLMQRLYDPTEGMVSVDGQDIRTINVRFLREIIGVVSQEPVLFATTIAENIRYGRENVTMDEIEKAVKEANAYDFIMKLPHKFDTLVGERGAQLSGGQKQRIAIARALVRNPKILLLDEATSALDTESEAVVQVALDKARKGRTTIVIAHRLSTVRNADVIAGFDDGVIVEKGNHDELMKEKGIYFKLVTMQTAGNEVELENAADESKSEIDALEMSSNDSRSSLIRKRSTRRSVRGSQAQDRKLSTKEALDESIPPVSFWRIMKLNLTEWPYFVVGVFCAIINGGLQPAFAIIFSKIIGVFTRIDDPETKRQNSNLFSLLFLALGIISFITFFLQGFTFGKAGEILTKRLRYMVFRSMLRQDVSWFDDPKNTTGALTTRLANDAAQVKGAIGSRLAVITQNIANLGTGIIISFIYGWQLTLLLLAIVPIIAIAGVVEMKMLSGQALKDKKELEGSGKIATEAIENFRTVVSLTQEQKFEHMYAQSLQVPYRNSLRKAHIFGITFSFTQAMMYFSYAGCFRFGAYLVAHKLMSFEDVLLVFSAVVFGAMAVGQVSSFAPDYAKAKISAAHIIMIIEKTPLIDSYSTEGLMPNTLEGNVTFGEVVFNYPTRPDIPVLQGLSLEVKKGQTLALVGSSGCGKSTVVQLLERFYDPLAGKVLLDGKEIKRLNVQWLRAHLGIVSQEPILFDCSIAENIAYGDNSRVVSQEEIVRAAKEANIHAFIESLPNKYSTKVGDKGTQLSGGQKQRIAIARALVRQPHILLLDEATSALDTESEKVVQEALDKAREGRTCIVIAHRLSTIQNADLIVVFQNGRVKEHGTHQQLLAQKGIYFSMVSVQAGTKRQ", "assay": "P-gp MDCK-MDR1 permeability assay", "type": "in vitro ADME", "conditions": "efflux ratio, MDCK-MDR1 cells", "experimental": "P-gp MDCK-MDR1 Studies. The compounds of the present disclosure were tested in a MDCK-MDR1 permeability assay to assess whether they are actively transported out of cells by the efflux protein, P-glycoprotein (P-gp).\nProtocol. MDCK-MDR1 cells were used between passage numbers 6-30. Cells were seeded onto Millipore Multiscreen Transwell plates at 3.4×10^5 cells/cm^2. The cells were cultured in DMEM and media was changed on Day 3. On Day 4 the P-gp inhibition study was performed. Cell culture and assay incubations were carried out at 37° C. in an atmosphere of 5% CO2 with a relative humidity of 95%. On the day of the assay, the monolayers were prepared by rinsing both apical and basolateral surfaces twice with warmed (37° C.) transport buffer (Hanks Balanced Salt Solution [HBSS] containing 25 mM HEPES and 4.45 mM glucose, pH 7.4). Cells were then incubated with transport buffer containing test compound or positive control inhibitor (elacridar) in both apical and basolateral compartments for 30 minutes at 37° C. The dosing solutions were prepared by diluting digoxin and test compound where applicable to give a final digoxin concentration of 5 μM (final DMSO concentration of 1% v/v). The fluorescent integrity marker lucifer yellow was prepared in receiver solutions in vehicle or test compound-containing transport buffer. After pre-incubation, the transport buffer was removed from both apical and basolateral compartments and replaced with the appropriate dosing or receiver solution.\nFor assessment of B-A permeability, transport buffer was removed from the basolateral companion plate and replaced with dosing solution. Fresh transport buffer containing lucifer yellow and test compound where applicable (final DMSO concentration 1% v/v) was added to the apical compartment insert, which was then placed into the companion plate. After a 90-minute incubation the apical compartment inserts and the companion plates were separated and compartments sampled for analysis. Seven concentrations of test compound (up to 100 μM) were assessed in addition to a vehicle control (0 μM). A triplicate determination of each concentration was performed. The positive control inhibitor was evaluated in parallel. [^3H]-digoxin was quantified by liquid scintillation counting to give disintegrations per minute (dpm). The integrity of the monolayer throughout the experiment was checked by monitoring lucifer yellow permeation using fluorimetric analysis.\nThe efflux ratio (ER) values of compounds of the present disclosure are shown in Table B below (“****” means <3; “***” 3≥ and <10; “**” means ≥10 and <30; “*” means ≥30)."}},
  "data": [
    {"compound": "Cn1cc(N(CC2CCCCO2)S(=O)(=O)NC(=O)Nc2c3c(cc4c2CC4)CC3)cn1", "note": "(stereo in doubt) [Compound 7A, Sodium [(1-methyl-1H-pyrazol-4-yl)({[(2S)-oxan-2-yl]methyl})sulfamoyl]-({tricyclo[6.2.0.0^3,6]deca-1,3(6),7-trien-2-yl}carbamoyl)azanide]", "values": [
      {"measurement": "IC50", "setting": "[1]", "result": "< 100", "unit": "nM"},
      {"measurement": "PAMPA Pe", "setting": "PAMPA permeability assay", "result": "$$$ (“$$$” means ≥3 and <10 nm/s)"},
      {"measurement": "solubility thermodynamic at 24 h", "setting": "[2]", "result": "3000 to 10000", "unit": "µg/mL"},
      {"measurement": "MDCK-MDR1 ER", "setting": "P-glycoprotein (P-gp)", "result": "** (“**” means ≥10 and <30)"}
    ]},
    {"compound": "Cn1cc(N(CC2CCCCO2)S(=O)(=O)NC(=O)Nc2c3c(cc4c2CC4)CC3)cn1", "note": "(stereo in doubt) [Compound 7B, Sodium [(1-methyl-1H-pyrazol-4-yl)({[(2R)-oxan-2-yl]methyl})sulfamoyl]-({tricyclo[6.2.0.0^3,6]deca-1,3(6),7-trien-2-yl}carbamoyl)azanide)]", "values": [
      {"measurement": "IC50", "setting": "[1]", "result": "< 100", "unit": "nM"},
      {"measurement": "PAMPA Pe", "setting": "PAMPA permeability assay", "result": "$$$ (“$$$” means ≥3 and <10 nm/s)"},
      {"measurement": "solubility thermodynamic at 24 h", "setting": "[2]", "result": "3000 to 10000", "unit": "µg/mL"},
      {"measurement": "MDCK-MDR1 ER", "setting": "P-glycoprotein (P-gp)", "result": "* (“*” means ≥30)"}
    ]},
    {"compound": "Cn1cc(N(C[C@@H]2CCCO2)S(=O)(=O)NC(=O)Nc2c3c(cc4c2CC4)CC3)cn1", "note": "[Compound 3A, Sodium [(1-methyl-1H-pyrazol-4-yl)({[(2S)-oxolan-2-yl]methyl})sulfamoyl]-({tricyclo[6.2.0.0^3,6]deca-1,3(6),7-trien-2-yl}carbamoyl)azanide]", "values": [
      {"measurement": "IC50", "setting": "[1]", "result": "< 100", "unit": "nM"},
      {"measurement": "MDCK-MDR1 ER", "setting": "P-glycoprotein (P-gp)", "result": "* (“*” means ≥30)"}
    ]},
    {"compound": "Cn1cc(N(C[C@H]2CCCO2)S(=O)(=O)NC(=O)Nc2c3c(cc4c2CC4)CC3)cn1", "note": "[Compound 3B, Sodium [(1-methyl-1H-pyrazol-4-yl)({[(2R)-oxolan-2-yl]methyl})sulfamoyl]-({tricyclo[6.2.0.0^3,6]deca-1,3(6),7-trien-2-yl}carbamoyl)azanide]", "values": [
      {"measurement": "IC50", "setting": "[1]", "result": "< 100", "unit": "nM"},
      {"measurement": "MDCK-MDR1 ER", "setting": "P-glycoprotein (P-gp)", "result": "* (“*” means ≥30)"}
    ]}
  ]
}
